Measured values from ChEMBL document CHEMBL1201862, “PubChem BioAssay data set” (2004).
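Compound exposure: 48 hours, 5 concentrations, 96-well plates. GI50 = concentration required for 50% inhibition of growth.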 Calls of active or inactive are those of the source. No stated cut-off is given here; in the data, active = GI50 up to about 1.1 µM and inactive = higher.

Key:
Experiment in all cases: NCI tumour cell line growth inhibition, 48 h
COLO 205 = test system: COLO 205
SF-539 = test system: SF-539
SNB-75 = test system: SNB-75
OVCAR-3 = test system: OVCAR-3
UO-31 = test system: UO-31
EKVX = test system: EKVX
SK-MEL-5 = test system: SK-MEL-5
MOLT-4 = test system: MOLT-4
TK-10 = test system: TK-10
CAKI-1 = test system: CAKI-1
HT-29 = test system: HT-29
KM12 = test system: KM12
XF498 = test system: XF498
M14 = test system: M14
OVCAR-8 = test system: OVCAR-8
M19-MEL = test system: M19-MEL
HCT-15 = test system: HCT-15
OVCAR-4 = test system: OVCAR-4
DMS-273 = test system: DMS-273
LXFL 529 = test system: LXFL 529
NCI-H460 = test system: NCI-H460
RPMI-8226 = test system: RPMI-8226
SK-MEL-28 = test system: SK-MEL-28
786-0 = test system: 786-0
NCI-H23 = test system: NCI-H23
K562 = test system: K562
A498 = test system: A498
U-251 = test system: U-251
A549 = test system: A549
SK-OV-3 = test system: SK-OV-3
SF-268 = test system: SF-268
HL-60 = test system: HL-60
DLD-1 = test system: DLD-1
ACHN = test system: ACHN
UACC-62 = test system: UACC-62
DMS-114 = test system: DMS-114
KM-20L2 = test system: KM-20L2
HOP-18 = test system: HOP-18
HOP-62 = test system: HOP-62
NCI-H522 = test system: NCI-H522
CCRF-CEM = test system: CCRF-CEM
SNB-19 = test system: SNB-19
IGROV-1 = test system: IGROV-1
SNB-78 = test system: SNB-78
UACC-257 = test system: UACC-257
SW-620 = test system: SW-620
SK-MEL-2 = test system: SK-MEL-2
RXF 393 = test system: RXF 393
SN12C = test system: SN12C
HCC 2998 = test system: HCC 2998
HCT-116 = test system: HCT-116
Malme-3M = test system: Malme-3M
SF-295 = test system: SF-295
LOX IMVI = test system: LOX IMVI
NCI-H226 = test system: NCI-H226
SR = test system: SR
OVCAR-5 = test system: OVCAR-5

O=C1Nc2ccccc2C12CCCC2
GI50 (COLO 205): > 100 µM (inactive) | GI50 (SF-539): 4.24 µM (inactive) | GI50 (SNB-75): 54.6 µM (inactive) | GI50 (OVCAR-3): > 100 µM (inactive) | GI50 (UO-31): > 100 µM (inactive) | GI50 (EKVX): 72.3 µM (inactive) | GI50 (SK-MEL-5): > 100 µM (inactive) | GI50 (MOLT-4): > 100 µM (inactive) | GI50 (TK-10): > 100 µM (inactive) | GI50 (CAKI-1): > 100 µM (inactive) | GI50 (HT-29): > 100 µM (inactive) | GI50 (KM12): > 100 µM (inactive) | GI50 (XF498): > 100 µM (inactive) | GI50 (M14): > 100 µM (inactive) | GI50 (OVCAR-8): > 100 µM (inactive) | GI50 (M19-MEL): > 100 µM (inactive) | GI50 (HCT-15): > 100 µM | GI50 (OVCAR-4): > 100 µM (inactive) | GI50 (DMS-273): > 100 µM (inactive) | GI50 (LXFL 529): > 100 µM (inactive) | GI50 (NCI-H460): > 100 µM (inactive) | GI50 (RPMI-8226): > 100 µM (inactive) | GI50 (SK-MEL-28): > 100 µM (inactive) | GI50 (786-0): > 100 µM (inactive) | GI50 (NCI-H23): > 100 µM (inactive) | GI50 (K562): > 100 µM (inactive) | GI50 (A498): > 100 µM (inactive) | GI50 (U-251): > 100 µM (inactive) | GI50 (A549): > 100 µM (inactive) | GI50 (SK-OV-3): > 100 µM (inactive) | GI50 (SF-268): > 100 µM (inactive) | GI50 (HL-60): > 100 µM (inactive) | GI50 (DLD-1): > 100 µM (inactive) | GI50 (ACHN): > 100 µM (inactive) | GI50 (UACC-62): > 100 µM (inactive) | GI50 (DMS-114): > 100 µM (inactive) | GI50 (KM-20L2): > 100 µM (inactive) | GI50 (HOP-18): > 100 µM (inactive) | GI50 (HOP-62): > 100 µM (inactive) | GI50 (NCI-H522): > 100 µM (inactive) | GI50 (CCRF-CEM): > 100 µM (inactive) | GI50 (SNB-19): > 100 µM (inactive) | GI50 (IGROV-1): > 100 µM (inactive) | GI50 (SNB-78): > 100 µM (inactive) | GI50 (UACC-257): > 100 µM (inactive) | GI50 (SW-620): > 100 µM (inactive) | GI50 (SK-MEL-2): > 100 µM (inactive) | GI50 (RXF 393): > 100 µM (inactive) | GI50 (SN12C): > 100 µM (inactive) | GI50 (HCC 2998): > 100 µM (inactive) | GI50 (HCT-116): > 100 µM (inactive) | GI50 (Malme-3M): > 100 µM (inactive) | GI50 (SF-295): > 100 µM (inactive)

COC(=O)C(C(=O)C(=O)Nc1ccc(C)cc1)c1nc2ccc([N+](=O)[O-])cc2nc1O (centres undefined)
GI50 (COLO 205): 53.5 µM (inactive) | GI50 (SF-539): > 100 µM (inactive) | GI50 (SNB-75): > 100 µM (inactive) | GI50 (OVCAR-3): > 100 µM (inactive) | GI50 (UO-31): 66.1 µM (inactive) | GI50 (EKVX): > 100 µM (inactive) | GI50 (SK-MEL-5): 49.1 µM (inactive) | GI50 (MOLT-4): 92.9 µM (inactive) | GI50 (TK-10): > 100 µM (inactive) | GI50 (CAKI-1): > 100 µM (inactive) | GI50 (HT-29): > 100 µM (inactive) | GI50 (KM12): > 100 µM (inactive) | GI50 (XF498): > 100 µM (inactive) | GI50 (M14): > 100 µM (inactive) | GI50 (OVCAR-8): > 100 µM (inactive) | GI50 (M19-MEL): > 100 µM (inactive) | GI50 (HCT-15): > 100 µM | GI50 (OVCAR-4): > 100 µM (inactive) | GI50 (DMS-273): > 100 µM (inactive) | GI50 (LXFL 529): 51.6 µM (inactive) | GI50 (NCI-H460): > 100 µM (inactive) | GI50 (SK-MEL-28): > 100 µM (inactive) | GI50 (786-0): > 100 µM (inactive) | GI50 (NCI-H23): > 100 µM (inactive) | GI50 (K562): 30.1 µM (inactive) | GI50 (A498): > 100 µM (inactive) | GI50 (U-251): 37.6 µM (inactive) | GI50 (A549): > 100 µM (inactive) | GI50 (SK-OV-3): > 100 µM (inactive) | GI50 (SF-268): > 100 µM (inactive) | GI50 (LOX IMVI): > 100 µM (inactive) | GI50 (HL-60): 35.6 µM (inactive) | GI50 (DLD-1): > 100 µM (inactive) | GI50 (ACHN): > 100 µM (inactive) | GI50 (UACC-62): 85.7 µM (inactive) | GI50 (NCI-H226): > 100 µM (inactive) | GI50 (DMS-114): 21.3 µM (inactive) | GI50 (KM-20L2): > 100 µM (inactive) | GI50 (HOP-18): > 100 µM (inactive) | GI50 (HOP-62): > 100 µM (inactive) | GI50 (NCI-H522): 6.93 µM (inactive) | GI50 (CCRF-CEM): 36.1 µM (inactive) | GI50 (SNB-19): > 100 µM (inactive) | GI50 (IGROV-1): > 100 µM (inactive) | GI50 (SNB-78): > 100 µM (inactive) | GI50 (SR): > 100 µM (inactive) | GI50 (UACC-257): > 100 µM (inactive) | GI50 (SW-620): > 100 µM (inactive) | GI50 (SK-MEL-2): > 100 µM (inactive) | GI50 (RXF 393): > 100 µM (inactive) | GI50 (OVCAR-5): > 100 µM (inactive) | GI50 (SN12C): > 100 µM (inactive) | GI50 (HCC 2998): > 100 µM (inactive) | GI50 (HCT-116): > 100 µM (inactive) | GI50 (Malme-3M): > 100 µM (inactive) | GI50 (SF-295): > 100 µM (inactive)
